How the values were obtained:
[1] = system: BT-474 cancer cells; test: Inhibitory activity against proliferation of BT-474 cancer cells (CellTiter-Glo); type: cell-based; details: Homo sapiens, BT-474 ErbB2-overexpressing cancer cells, 120 hours after treatment
Method: To evaluate the inhibitory activity of a compound according to the present invention against the proliferation of ErbB2-overexpressing cancer cells, the following experiment were performed.
10% FBS-added McCOY'S 5A was used for SK-BR-3 cancer cells. 20% FBS-added RPMI-1640 was used for BT-474 cancer cells. Transduced Ba/F3 cells were cultured in a RPMI-1640 medium to which 1 μg/ml puromycin (Invitrogen) was added.
48 hours before compound treatment, each type of the SK-BR-3 and BT-474 cells were seeded at 5,000 cells/well in a white clear bottom 96 well plate (Corning). The compound was diluted in dimethyl sulfoxide (SK-BR-3: 3-fold dilution, a total of 12 concentrations, BT-474: […], a total of 12 concentrations) and injected at 1 μl to have the final concentration of 0.2 nM to 5 μM. As for measurement of live cells, 120 hours after treatment with the compound, a CellTiter-Glo luminescent cell-viability reagent (Promega) was used to store the cells at room temperature for 10 minutes, followed by measurement of luminescence using a reader (SynergyNeo, Biotek). Each test was repeated three times.
The result values were calculated as a cell growth rate (%) compared to the control group. A graph was plotted using the GraphPad Prism version 8.3.0 program, and GI50 values were calculated.

[2] = system: SK-BR-3 cancer cells; test: Inhibitory activity against proliferation of SK-BR-3 cancer cells (CellTiter-Glo); type: cell-based; details: Homo sapiens, SK-BR-3, 120 h, ErbB2-overexpressing SK-BR-3 cells, 120 hours after treatment
Summary of the method: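 Cells seeded 48 h before dosing (SK-BR-3 in McCOY'S 5A + 10% FBS; BT-474 in RPMI-1640 + 20% FBS), then exposed 120 h to 12 concentrations, 0.2 nM-5 μM final. Viability by CellTiter-Glo luminescence; GI50 from growth rate vs control, triplicate runs.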

Compound	GI50 [1]	GI50 [2]
C=CC(=O)Nc1cc(Nc2cc(N3OCC[C@@H]3c3cccc(-c4cccc(C(N)=O)c4)c3)ncn2)c(OC)cc1N1CCN(C)CC1 [Example 325, (R)-3′-(2-(6-((5-acrylamido-2-methoxy-4-(4-methylpiperazin-1-yl)phenyl)-amino)pyrimidin-4-yl)isoxazolidin-3-yl)-[1,1′-biphen-yl]-3-carboxamide]	< 50 nM	
C=CC(=O)Nc1cc(Nc2cc(N3OCC[C@@H]3c3cccc(C(=O)Nc4ccccc4)c3)ncn2)c(OC)cc1N1CCN(C)CC1 [Example 334, (R)-3-(2-(6-((5-acrylamido-2-meth-oxy-4-(4-methyl-piperazin-1-yl)-phenyl)amino)pyr-imidin-4-yl)isox-azolidin-3-yl)-N-phenylbenzamide]	< 50 nM	
C=CC(=O)Nc1cc(Nc2cc(N3OCC[C@@H]3c3cccc(-c4cccc(F)c4)c3)ncn2)c(OC)cc1N1CCC2(CC1)COC2 [Example 339, (R)-N-(5-((6-(3-(3′-fluoro-[1,1′-biphenyl]-3-yl)-isoxazolidin-2-yl)-pyrimidin-4-yl)-amino)-4-methoxy-2-(2-oxa-7-azas-piro[3.5]nonan-7-yl)phenyl)acryl-amide]	< 50 nM	
C=CC(=O)Nc1cc(Nc2cc(N3OCC[C@@H]3c3cc(F)cc(-c4cccc(F)c4)c3)ncn2)c(OC)cc1N1CCC(N2CCN(C3CC3)CC2)CC1 [Example 248, (R)-N-(2-(4-(4-cyclopropylpiper-azin-1-yl)piperidin-1-yl)-5-((6-(3-(3′,5-difluoro-[1,1′-biphenyl]-3-yl)-isoxazolidin-2-yl)-pyrimidin-4-yl)-amino)-4-methoxy-phenyl)acrylamide]	< 50 nM	
C=CC(=O)Nc1cc(Nc2cc(N3OCC[C@@H]3c3cccc(-c4cccc(C)c4C)c3)ncn2)c(OC)cc1N1CCN(C)CC1 [Example 337, (R)-N-(5-((6-(3-(2′,3′-dimethyl-[1,1′-biphenyl]-3-yl)isoxazolidin-2-yl)pyrimidin-4-yl)-amino)-4-methoxy-2-(4-methylpiper-azin-1-yl)phenyl)-acrylamide]	< 50 nM	
C=CC(=O)Nc1cc(Nc2cc(N3OCC[C@@H]3c3cc(F)cc(-c4cccnc4)c3)ncn2)c(OC)cc1N(C)CCN(C)C [Example 178, (R)-N-(2-((2-(dimethylamino)-ethyl)(methyl)-amino)-5-((6-(3-(3-fluoro-5-(pyr-idin-3-yl)phenyl)-isoxazolidin-2-yl)-pyrimidin-4-yl)-amino)-4-methoxy-phenyl)acrylamide]		< 50 nM
C=CC(=O)Nc1cc(Nc2cc(N3OCC[C@@H]3c3ccc(F)c(OCc4cccc(F)c4)c3)ncn2)c(OC)cc1N1CCN(C)CC1 [Example 244, (R)-N-(5-((6-(3-(4-fluoro-3-((3-fluorobenzyl)oxy)-phenyl)isoxazol-idin-2-yl)pyrim-idin-4-yl)amino)-4-methoxy-2-(4-methylpiperazin-1-yl)phenyl)-acrylamide]		< 50 nM
C=CC(=O)Nc1cc(Nc2cc(N3OCC[C@@H]3c3cccc(-c4ccccc4)c3)ncn2)c(OC)cc1N1CCN(CCC)CC1 [Example 230, (R)-N-(5-((6-(3-([1,1′-biphenyl]-3-yl)isoxazolidin-2-yl)pyrimidin-4-yl)-amino)-4-methoxy-2-(4-propylpiper-azin-1-yl)phenyl)-acrylamide]		< 50 nM
C=CC(=O)Nc1cc(Nc2cc(N3OCCC3c3cccc(C#CC(C)(C)C)c3)ncn2)c(OC)cc1N1CCN(C)CC1 (centres unmarked) [Example compound 139, N-(5-((6-(3-(3-(3,3-dimethylbut-1-yn-1-yl)phenyl)isoxazolidin-2-yl)pyrimidin-4-yl)amino)-4-methoxy-2-(4-methylpiperazin-1-yl)phenyl)acrylamide]		50 to 500 nM
C=CC(=O)Nc1cc(Nc2cc(N3OCC[C@@H]3c3cc(F)cc(-c4ccsc4)c3)ncn2)c(OC)cc1N(C)CCN(C)C [Example 194, (R)-N-(2-((2-(dimethylamino)-ethyl)(methyl)-amino)-5-((6-(3-(3-fluoro-5-(thio-phen-3-yl)phenyl)-isoxazolidin-2-yl)-pyrimidin-4-yl)-amino)-4-methoxy-phenyl)acrylamide]		< 50 nM
C=CC(=O)Nc1cc(Nc2cc(N3OCCC3c3cccc(-c4cnc5cccnn45)c3)ncn2)c(OC)cc1N(C)CCN(C)C (centres unmarked) [Example 235, N-(2-((2-(dimeth-ylamino)ethyl)-(methyl)amino)-5-((6-(3-(3-(imidazo[1,2-b]-pyridazin-3-yl)-phenyl)isoxazol-idin-2-yl)pyrim-idin-4-yl)amino)-4-methoxyphen-yl)acrylamide]		< 50 nM
C=CC(=O)Nc1cc(Nc2cc(N3OCCC3c3cccc(C#CC(C)(C)C)c3)ncn2)c(OC)cc1N1CCC(N2CCN(C3CC3)CC2)CC1 (centres unmarked) [Example compound 140, N-(2-(4-(4-cyclopropylpiperazin-1-yl)piperidin-1-yl)-5-((6-(3-(3-(3,3-dimethylbut-1-yn-1-yl)phenyl)isoxazolidin-2-yl)pyrimidin-4-yl)amino)-4-methoxyphenyl)acrylamide]		50 to 500 nM
C=CC(=O)Nc1cc(Nc2cc(N3OCC[C@@H]3c3cc(F)cc(-c4cnn(C)c4)c3)ncn2)c(OC)cc1N1CCC(N2CCN(C3CC3)CC2)CC1 [Example compound 129, (R)-N-(2-(4-(4-cyclopropylpiperazin-1-yl)piperidin-1-yl)-5-((6-(3-(3-fluoro-5-(1-methyl-1H-pyrazol-4-yl)phenyl)isoxazolidin-2-yl)pyrimidin-4-yl)amino)-4-methoxyphenyl)acrylamide]		< 50 nM
C=CC(=O)Nc1cc(Nc2cc(N3OCCC3c3cccc(-c4ccc(C)s4)c3)ncn2)c(OC)cc1N1CCN(C)CC1 (centres unmarked) [Example 214, N-(4-methoxy-2-(4-methylpiper-azin-1-yl)-5-((6-(3-(3-(5-methyl-thiophen-2-yl)-phenyl)isoxazol-idin-2-yl)pyrim-idin-4-yl)amino)-phenyl)acrylamide]		50 to 500 nM
C=CC(=O)Nc1cc(Nc2cc(N3OCC[C@@H]3c3cccc(-c4ccc5ncnn5c4)c3)ncn2)c(OC)cc1N1CCN(C)CC1 [Example 266, (R)-N-(5-((6-(3-(3-([1,2,4]triazolo-[1,5-a]pyridin-6-yl)phenyl)isoxazol-idin-2-yl)pyrim-idin-4-yl)amino)-4-methoxy-2-(4-methylpiperazin-1-yl)phenyl)acryl-amide]		< 50 nM
C=CC(=O)Nc1cc(Nc2cc(N3OCC[C@@H]3c3cccc(-c4cnc5ccnn5c4)c3)ncn2)c(OC)cc1N1CCOCC1 [Example 264, (R)-N-(4-methoxy-2-morpholino-5-((6-(3-(3-(pyraz-olo[1,5-a]pyrim-idin-6-yl)phenyl)-isoxazolidin-2-yl)-pyrimidin-4-yl)-amino)phenyl)-acrylamide]		< 50 nM
C=CC(=O)Nc1cc(Nc2cc(N3OCCC3c3cccc(OCc4ccccn4)c3)ncn2)c(OC)cc1N1CC[C@@H](N(C)C)C1 (some centres unmarked) [Example compound 97]		< 50 nM
C=CC(=O)Nc1cc(Nc2cc(N3OCC[C@H]3c3cccc(OCc4cccc(F)c4)c3)ncn2)c(OC)cc1N(C)CCN(C)C [Example 229, (S)-N-(2-((2-(dimethylamino)-ethyl)(methyl)-amino)-5-((6-(3-(3-((3-fluorobenz-yl)oxy)phenyl)-isoxazolidin-2-yl)-pyrimidin-4-yl)-amino)-4-methoxy-phenyl)acrylamide]		50 to 500 nM
C=CC(=O)Nc1cc(Nc2cc(N3OCC[C@@H]3c3cc(F)cc(-c4cccnc4)c3)ncn2)c(OC)cc1N1CCN(C)CC1 [Example 177, (R)-N-(5-((6-(3-(3-fluoro-5-(pyr-idin-3-yl)phenyl)-isoxazolidin-2-yl)-pyrimidin-4-yl)-amino)-4-meth-oxy-2-(4-methyl-piperazin-1-yl)-phenyl)acrylamide]		50 to 500 nM
C=CC(=O)Nc1cc(Nc2cc(N3OCC[C@@H]3c3cccc(-c4cccc(F)c4)c3)ncn2)c(OC)cc1N1CC2(CNC2)C1 [Example 321, (R)-N-(5-((6-(3-(3′-fluoro-[1,1′-biphenyl]-3-yl)-isoxazolidin-2-yl)-pyrimidin-4-yl)-amino)-4-meth-oxy-2-(2,6-diaza-spiro[3.3]heptan-2-yl)phenyl)acryl-amide]		50 to 500 nM
C=CC(=O)Nc1cc(Nc2cc(N3OCCC3c3cccc(C#Cc4ccccc4)c3)ncn2)c(OC)cc1N1CCN(C)CC1 (centres unmarked) [Example compound 137, N-(4-methoxy-2-(4-methylpiperazin-1-yl)-5-((6-(3-(3-(phenylethynyl)phenyl)isoxazolidin-2-yl)pyrimidin-4-yl)amino)phenyl)acrylamide]		50 to 500 nM
C=CC(=O)Nc1cc(Nc2cc(N3OCC[C@@H]3c3cc(F)cc(Oc4cccc(F)c4)c3)ncn2)c(OC)cc1N1CCN(C)CC1 [Example 191, (R)-N-(5-((6-(3-(3-fluoro-5-(3-fluoro-phenoxy)phenyl)-isoxazolidin-2-yl)-pyrimidin-4-yl)-amino)-4-meth-oxy-2-(4-methyl-piperazin-1-yl)-phenyl)acrylamide]		50 to 500 nM
C=CC(=O)Nc1cc(Nc2cc(N3OCCC3c3cccc(-c4cccc(C(F)(F)F)c4)c3)ncn2)c(OC)cc1N1CCN(C)CC1 (centres unmarked) [Example 237]		50 to 500 nM

From patent US20240262815A1, “HETEROARYL DERIVATIVE, METHOD FOR PREPARING SAME, AND PHARMACEUTICAL COMPOSITION COMPRISING SAME AS ACTIVE INGREDIENT” (VORONOI INC., priority 2021, published 2024)
